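96-well plates; 48 h exposure; 5 concentrations. Endpoints by linear interpolation between flanking doses. Not reached: highest tested concentration assigned. TGI denotes the concentration required for complete inhibition of growth.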
Experiments:
Experiment in all cases: NCI tumour cell line growth inhibition, 48 h
LXFL 529 NSCLC = system: LXFL 529 NSCLC
RXF-631 renal = system: RXF-631 renal
KM20L2 colon = system: KM20L2 colon
HS 578T breast = system: HS 578T breast
PC-3 prostate = system: PC-3 prostate
MDA-MB-231 breast = system: MDA-MB-231 breast
MDA-MB-435 = system: MDA-MB-435
MDA-N = system: MDA-N
BT-549 breast = system: BT-549 breast
XF 498 CNS = system: XF 498 CNS
SNB-78 CNS = system: SNB-78 CNS
SN12K1 renal = system: SN12K1 renal
P388/ADR leukemia = system: P388/ADR leukemia
P388 leukemia = system: P388 leukemia

SMILES | TGI (LXFL 529 NSCLC) | TGI (RXF-631 renal) | TGI (KM20L2 colon) | TGI (HS 578T breast) | TGI (PC-3 prostate) | TGI (MDA-MB-231 breast) | TGI (MDA-MB-435) | TGI (MDA-N) | TGI (BT-549 breast) | TGI (XF 498 CNS) | TGI (SNB-78 CNS) | TGI (SN12K1 renal) | TGI (P388/ADR leukemia) | TGI (P388 leukemia)
CC(=O)Oc1ccccc1 | > 100 µM | > 100 µM | > 100 µM | – | – | – | – | – | – | – | – | – | – | –
CC(=O)Nc1ccc2c(c1)/C(=C\c1ccc([N+](C)(C)C)cc1)c1ccccc1-2 | – | – | – | 88.3 µM | > 100 µM | > 100 µM | > 100 µM | > 100 µM | > 100 µM | – | – | – | – | –
COc1ccccc1/C=C/c1ccnc2ccccc12 | – | – | – | 38.5 µM | 27.3 µM | 31.1 µM | 19.9 µM | 26.1 µM | 24.4 µM | – | – | – | – | –
Cc1c2ccccc2c(C2C3C(=O)N(c4ccc(Br)cc4)C(=O)C3ON2C(C(N)=O)c2ccccc2)c2ccccc12 (stereo not drawn) | – | – | – | – | > 100 µM | – | 12.9 µM | 35.1 µM | 43.4 µM | – | – | – | – | –
Cc1ccc(O)c(Cc2nc3ccccc3nc2-c2cccc(Cl)c2)c1 | – | – | – | > 100 µM | > 100 µM | > 100 µM | 54.9 µM | > 100 µM | > 100 µM | – | – | – | – | –
COc1cc(C(=O)NC2CCc3cc(OC)c(OC)c(OC)c3-c3ccc(OC)c(=O)cc32)cc(OC)c1OC (stereo not drawn) | 44.2 µM | – | 0.326 µM | > 21.1 µM | > 100 µM | > 100 µM | 0.0961 µM | 0.0961 µM | – | 16 µM | > 100 µM | – | – | –
c1ccc2c(CSCc3cccc4ccccc34)cccc2c1 | – | – | – | > 100 µM | > 100 µM | > 100 µM | > 100 µM | > 100 µM | > 100 µM | – | – | – | – | –
O=C(COc1ccc(Cl)c(Cl)c1)Nc1ccc[n+](Cc2ccc(S(=O)(=O)F)c(Cl)c2)c1 | – | – | – | > 100 µM | > 100 µM | > 100 µM | > 100 µM | – | > 100 µM | – | – | – | – | –
COc1cc2c(c(OC)c1OC)-c1ccc(OC)c(=O)cc1C(NC(=O)COc1ccccc1)CC2 (stereo not drawn) | > 100 µM | > 100 µM | < 0.01 µM | > 31.6 µM | > 100 µM | 1.22 µM | < 0.01 µM | < 0.01 µM | 5.12 µM | 65.8 µM | > 100 µM | – | – | –
Cc1ccc2c(c1)SC1=Nc3sc4cc(C)ccc4[n+]3CN12 | – | – | – | 35.5 µM | > 100 µM | 92.8 µM | 20.2 µM | – | 18.3 µM | – | – | – | – | –
CC(C)(C)[Si](OC1CCOC1=O)(c1ccccc1)c1ccccc1 (stereo not drawn) | > 100 µM | 98.8 µM | 35.6 µM | – | – | – | – | – | – | 24.2 µM | > 100 µM | – | – | –
C[C@@H]1C[C@H]2[C@@H]3CCC4=CC(=O)C=C[C@]4(C)[C@@]3(F)[C@@H](O)C[C@]2(C)[C@@]1(O)C(=O)CO | > 100 µM | – | > 100 µM | – | – | – | – | – | – | – | – | – | – | –
C[n+]1cccc(NC(=O)c2ccc(NC(=O)C34CCC(C(=O)Nc5ccc(C(=O)Nc6ccc[n+](C)c6)cc5)(CC3)CC4)cc2)c1 | > 100 µM | – | > 100 µM | – | – | – | – | – | – | – | > 100 µM | – | – | –
CNC(=O)OCc1nc(SC)n(C)c1CO | – | – | > 100 µM | – | – | – | – | – | – | > 100 µM | > 100 µM | > 100 µM | > 100 µM | > 100 µM
C[C@H]1C[C@@H]2[C@H]([C@@H](O)C[C@@]3(C)[C@H]2CC[C@]3(O)C(=O)CO)[C@@]2(C)C=CC(=O)C=C12 | – | – | > 100 µM | – | – | – | – | – | – | – | – | – | – | –
CCCCc1ccc(N=C(N)N)cc1 | – | – | – | > 100 µM | > 100 µM | > 100 µM | > 100 µM | 67 µM | 90.7 µM | – | – | – | – | –
COC1/C=C(C)/C=C/C(C)/C=C/C(=O)OC(/C(C)=C/C=C(\C)CNC(=O)[C@H](CO)NC=O)C(C)/C=C/C=C/C(OC)CC/C=C(C)/C=C/C1 (stereo partly drawn) | – | – | – | > 1 µM | > 0.352 µM | – | 0.047 µM | – | > 1 µM | – | – | – | – | –
